Reference: patent US6562378B1, “Nutritional supplement for adolescents” (TSAR Health Private Ltd., priority 2002, dated 2003)
Marks after values point to notes of the source that are not given here.

Experiments:
Assay type in all cases: in vivo, human
blood lymphocytes = assay: Zinc dose response: lymphocyte response to PHA (thymidine uptake, stimulation index); settings: 13-18 year old adolescents, median (standard deviation)
Experimental: (§1) The basic concept underlying the assessment of the most optimum nutrient amounts for a given age group uses the principle of “dose-response curves”. At least four groups of individuals were provided with various amounts of a given nutrient and their immune responses were measured using established and accepted techniques. The amount of a nutrient that gave the best response was considered the optimum amount. Dose response curves were determined for all vitamins and trace elements considered essential for human health, particularly immunity.
Data for the dose response curve for zinc in a group of 13-18 year old adolescents is shown in FIGS. 1 and 2, with the total amount of zinc taken is shown for each group. To determine the magnitude of immune response, an aliquot of blood was withdrawn from each subject in the study, blood lymphocytes were separated, washed and mixed with the mitogen phytohemagglutinin (PHA) in previously determined optimum amount. The optimum amount of PHA used in the experiments was predetermined by a set of dose response curves using lymphocytes of a healthy donor and four different concentrations of PHA. After culture in a sterile environment for 72 hours, the cells were washed and mixed with radioactive thymidine. The same steps were undertaken in a control sample in which only the culture medium was used, not PHA. The cells were washed and radioactivity determined.
(§2) The ratio of radioactivity in the test samples divided by radioactivity in control samples gave the “stimulation response” shown in FIGS. 1 and 2.

Thymulin activity = assay: Zinc dose response: thymulin activity; settings: adolescents
Experimental: as §1, §2

Antibody response = assay: Zinc dose response: antibody response; settings: adolescents
Experimental: as §1, §2

Interleukin-2 = assay: Zinc dose response: interleukin-2; settings: adolescents, median (standard deviation)
Experimental: as §1, §2

[1] = supplemental zinc 11 mg/day plus 7 mg in diet
[2] = supplemental zinc 28 mg/day plus 7 mg in diet
[3] = supplemental zinc 55 mg/day plus 7 mg in diet

## [Zn] [zinc]
Blood lymphocytes; [1]
  Lymphocyte Response to PHA (stimulation index): 77 (8)
Blood lymphocytes; [2]
  Lymphocyte Response to PHA (stimulation index): 51 (6)
Blood lymphocytes; [3]
  Lymphocyte Response to PHA (stimulation index): 40 (7)
Thymulin activity; [1]
  Thymulin activity (median reciprocal titer): 114*
Thymulin activity; [2]
  Thymulin activity (median reciprocal titer): 123*
Thymulin activity; [3]
  Thymulin activity (median reciprocal titer): 106*
Antibody response; [1]
  Antibody response (median reciprocal titre): 254
Antibody response; [2]
  Antibody response (median reciprocal titre): 136
Antibody response; [3]
  Antibody response (median reciprocal titre): 97
Interleukin-2; [1]
  Interleukin-2: 17 (1.4) units/ml
Interleukin-2; [2]
  Interleukin-2: 11 (1.5) units/ml
Interleukin-2; [3]
  Interleukin-2: 9 (1.1) units/ml
